Test results: patent US12084473B2, “β-D-2′-deoxy-2′-α-fluoro-2′-β-C-substituted-2-modified-N6-substituted purine nucleotides for HCV treatment” (Atea Pharmaceuticals, Inc., priority 2015, dated 2024)
Where two headings read alike, the source gives them in different places.

Key:
[1] = test system: HCV genotype 1b luciferase reporter replicon; assay: microbe, parasite or virus in culture; assay type: cell-based; conditions: Hepatitis C virus, HuH-7-Luc/Neo-ET, 72 h, read-out: HCV Replicon EC50/EC95: EC50
[2] = Cytotoxicity by XTT staining in replicon cells; conditions: human
Protocol: (§1) The plates were cultured for 24 hours prior to the addition of compounds. Six serial one half log dilutions of the test articles (high test concentration of 100.0 μM or high test concentration of 1.0 μM) and human interferon-alpha2b (high test 10.0 U/ml) were prepared in cell culture medium and added to the cultured cells in triplicate wells for each dilution. Six wells in the test plates received medium alone as an untreated control. Following 72 hours of culture in the presence of compound, one of the plates was used for the determination of cytotoxicity by staining with XTT and the other for antiviral efficacy by determination of luciferase reporter activity. Cytotoxicity and efficacy data were collected and imported into a customized Excel workbook for determination of the TC50 and EC50 values. […] The y-axis is the percent of virus control and the x-axis is the concentration of drug in μM. […] The y-axis is the percent of virus control and the x-axis is the concentration of drug in M.

[3] = test system: HCV genotype 1b luciferase reporter replicon; assay: microbe, parasite or virus in culture; assay type: cell-based
Protocol: as §1

[4] = test system: micro-patterned human hepatocyte co-cultures; assay: Human Hepatocyte Co-Cultures (HepatoPac): cytotoxicity and hepatocyte health; assay type: cell-based; conditions: for IC50: Homo sapiens, Hepatocyte
Protocol: Cytotoxicity and hepatocyte health were assessed in triplicate by measuring ALT leakage, urea production, albumin secretion and cellular ATP contents in micro-patterned human hepatocyte co-cultures (HepatoPac®, Hepregen Corporation) prepared by seeding cryopreserved human hepatocytes (single donor) and 3T3 J2 mouse fibroblasts in microtiter plates according to procedures established by Hepregen. Culture media was replaced with fresh media containing TA, test article, (0, 1, 10 or 30 μM) every 2 or 3 days through day 16. […] Cellular ATP levels were measured on days 9 and 21. ATP signals in stromal-only control cultures (murine 3T3 fibroblasts) were subtracted from those of human HepatoPac co-cultures to obtain hepatocyte-specific effects. See, Table 4, 5 and 6 below.

[5] = Hepatitis C virus; Huh-7 luc/neo ET cells, 72 hours, luciferase; read-out: HCV Replicon EC50/EC95: EC95
[6] = Hepatitis C virus; read-out: EC50 in a replicon assay
[7] = listed as stabilized phosphate prodrug (phosphoramidate) of β-D-2′-deoxy-2′-α-fluoro-2′-β-
[8] = listed as stabilized racemic phosphate prodrug (phosphoramidate) of β-D-2′-deoxy-2′-α-fluo
[9] = Hepatitis C virus, parent nucleosides; read-out: EC50 in a replicon assay

C[C@@]1(F)[C@H](O)C(CO)O[C@H]1n1cnc2c(N)nc(N)nc21 (stereo partly shown)
EC50 [1]: 6.7 µM
CC50 at 72 h [2]: > 100 µM

CC(C)OC(=O)[C@H](C)NP(=O)(OCC1O[C@@H](n2cnc3c(N)nc(N)nc32)[C@](C)(F)[C@@H]1O)Oc1ccccc1 (stereo partly shown)
EC50 [1]: 2.1 µM
EC95 [3, 5]: 9.04 µM
Fold increase in activity compared to parent nucleoside ([3]; Table 7): 3
CC50 at 72 h [2]: > 100 µM

CC(C)OC(=O)[C@H](C)N[P@@](=O)(OCC1O[C@@H](n2ccc(=O)[nH]c2=O)[C@](C)(F)[C@@H]1O)Oc1ccccc1 (stereo partly shown)
EC50 [1]: 0.052 µM
EC95 [3, 5]: 0.31 µM
CC50 at 72 h [2]: > 100 µM

CCOc1nc(N)nc2c1ncn2[C@@H]1O[C@@H]2CO[P@](=O)(OC(C)C)O[C@H]2[C@@]1(C)F
EC50 [1]: 0.045 µM
EC95 [3, 5]: 0.259 µM
CC50 at 72 h [2]: > 100 µM

CNc1nc(N)nc2c1ncn2[C@@H]1OC(COP(=O)(N[C@@H](C)C(=O)OC(C)C)Oc2ccccc2)[C@@H](O)[C@@]1(C)F (mixture of isomers) [Compound 5, isopropyl ((((R,S)-(2R,3R,4R,5R)-5-(2-amino-6-(methylamino)-9H-purin-9-yl)-4-fluoro-3-hydroxy-4-methyltetrahydrofuran-2-yl)methoxy)-phenoxy-phosphoryl)-L-alaninate]
EC50 [1]: 0.026 µM
EC95 [3, 5]: 0.124 µM
EC50 [3, 6]: 0.026 µM
Fold increase in activity compared to parent nucleoside ([3]; Table 7): >600
fold increase in activity (versus parent nucleoside) [3, 7]: ≥ 870
fold increase in activity (versus parent nucleoside) [3, 8]: ≥ 600
CC50 at 72 h [2]: > 100 µM

CC(C)OC(=O)[C@H](C)NP(=O)(OCC1O[C@@H](n2cnc3c(N(C)C)nc(N)nc32)[C@](C)(F)[C@@H]1O)Oc1ccccc1 (mixture of isomers) [Compound 7, isopropyl ((((R,S)-(2R,3R,4R,5R)-5-(2-amino-6-(dimethylamino)-9H-purin-9-yl)-4-fluoro-3-hydroxy-4-methyltetrahydrofuran-2-yl)methoxy)-phenoxy-phosphoryl)-L-alaninate]
EC50 [1]: 0.0121 µM
EC95 [3, 5]: 0.071 µM
EC50 [3, 6]: 0.012 µM
Fold increase in activity compared to parent nucleoside ([3]; Table 7): >890
fold increase in activity (versus parent nucleoside) [3, 7]: > 1,300
fold increase in activity (versus parent nucleoside) [3, 8]: > 890
CC50 at 72 h [2]: > 100 µM

CNc1nc(N)nc2c1ncn2[C@@H]1O[C@H](CO)[C@@H](O)[C@@]1(C)F [Compound 4, (2R,3R,4R,5R)-5-(2-amino-6-(methylamino)-9H-purin-9-yl)-4-fluoro-2-(hydroxymethyl)-4-methyltetrahydrofuran-3-ol]
EC50 [1]: 15.7 µM
EC50 [3, 9]: 15.7 µM
CC50 at 72 h [2]: > 100 µM

CNc1nc(N)nc2c1ncn2[C@@H]1OC(CO[P@](=O)(N[C@@H](C)C(=O)OC(C)C)Oc2ccccc2)[C@@H](O)[C@@]1(C)F (stereo partly shown) [Compound 5-1]
EC50 [1]: 0.0551 µM
EC95 [3, 5]: 0.282 µM
Fold increase in activity compared to parent nucleoside ([3]; Table 7): >280
CC50 at 72 h [2]: > 100 µM

CN(C)c1nc(N)nc2c1ncn2[C@@H]1O[C@H](CO)[C@@H](O)[C@@]1(C)F [Compound 6, (2R,3R,4R,5R)-5-(2-amino-6-(dimethylamino)-9H-purin-9-yl)-4-fluoro-2-(hydroxymethyl)-4-methyltetrahydrofuran-3-ol]
EC50 [1]: 10.7 µM
EC50 [3, 9]: 10.7 µM
CC50 at 72 h [2]: > 100 µM

CN(c1nc(N)nc2c1ncn2[C@@H]1O[C@H](CO)[C@@H](O)[C@@]1(C)F)C1CC1 [Compound 8, (2R,3R,4R,5R)-5-(2-Amino-6-(N-methyl-cyclopropylamino)-9H-purin-9-yl)-4-fluoro-2-(hydroxymethyl)-4-methyltetrahydrofuran-3-ol]
EC50 [1]: 5.56 µM
CC50 at 72 h [2]: > 100 µM

CC(C)OC(=O)[C@H](C)NP(=O)(OCC1O[C@@H](n2cnc3c(N(C)C4CC4)nc(N)nc32)[C@](C)(F)[C@@H]1O)Oc1ccccc1 (stereo partly drawn) [Compound 9, isopropyl ((((R,S)-(2R,3R,4R,5R)-5-(2-amino-6-(N-methyl-cyclopropylamino)-9H-purin-9-yl)-4-fluoro-3-hydroxy-4-methyltetrahydrofuran-2-yl)methoxy)-phenoxy-phosphoryl)-L-alaninate]
EC50 [1]: 0.0091 µM
EC50 ([3]; Hepatitis C virus, read-out: EC50 in a replicon assay): 0.007 µM
EC95 [3, 5]: 0.054 µM
Fold increase in activity compared to parent nucleoside ([3]; Table 7): >600
CC50 at 72 h [2]: > 100 µM

CNc1nc(NC(=O)C(C)C)nc2c1ncn2[C@@H]1O[C@H](CO)[C@@H](O)[C@@]1(C)F [Compound 15, (2R,3R,4R,5R)-5-(2-isobutyramido-6-methylamino-9H-purin-9-yl)-4-fluoro-2-(hydroxymethyl)-4-methyltetrahydrofuran-3-ol]
EC50 [1]: > 100 µM
CC50 at 72 h [2]: > 100 µM

CNc1nc(NC(=O)C(C)C)nc2c1ncn2[C@@H]1OC(COP(=O)(N[C@@H](C)C(=O)OC(C)C)Oc2ccccc2)[C@@H](O)[C@@]1(C)F (stereo partly drawn) [Compound 16, isopropyl ((((R,S)-(2R,3R,4R,5R)-5-(2-isobutyramido-6-methylamino-9H-purin-9-yl)-4-fluoro-3-hydroxy-4-methyltetrahydrofuran-2-yl)methoxy)-phenoxy-phosphoryl)-L-alaninate]
EC50 [1]: 0.576 µM
EC95 [3, 5]: 3.69 µM
CC50 at 72 h [2]: > 100 µM

CCN(C)c1nc(N)nc2c1ncn2[C@@H]1O[C@H](CO)[C@@H](O)[C@@]1(C)F [Compound 17, (2R,3R,4R,5R)-5-(2-amino-6-(N-methyl-ethylamino)-9H-purin-9-yl)-4-fluoro-2-(hydroxymethyl)-4-methyltetrahydrofuran-3-ol]
EC50 [1]: 11.5 µM
EC95 [3, 5]: 65.4 µM
CC50 at 72 h [2]: > 100 µM

CCN(C)c1nc(N)nc2c1ncn2[C@@H]1OC(COP(=O)(N[C@@H](C)C(=O)OC(C)C)Oc2ccccc2)[C@@H](O)[C@@]1(C)F (stereo partly drawn) [Compound 18, isopropyl ((((R,S)-(2R,3R,4R,5R)-5-(2-amino-6-(N-methyl-ethylamino)-9H-purin-9-yl)-4-fluoro-3-hydroxy-4-methyltetrahydrofuran-2-yl)methoxy)-phenoxy-phosphoryl)-L-alaninate]
EC50 [1]: 0.048 µM
EC95 [3, 5]: 0.219 µM
CC50 at 72 h [2]: 90 µM

CCCN(C)c1nc(N)nc2c1ncn2[C@@H]1O[C@H](CO)[C@@H](O)[C@@]1(C)F [Compound 19, (2R,3R,4R,5R)-5-(2-amino-6-(N-methyl-propylamino)-9H-purin-9-yl)-4-fluoro-2-(hydroxymethyl)-4-methyltetrahydrofuran-3-ol]
EC50 [1]: 7.47 µM
CC50 at 72 h [2]: > 100 µM

CCCN(C)c1nc(N)nc2c1ncn2[C@@H]1OC(COP(=O)(N[C@@H](C)C(=O)OC(C)C)Oc2ccccc2)[C@@H](O)[C@@]1(C)F (stereo partly drawn) [Compound 20, isopropyl ((((R,S)-(2R,3R,4R,5R)-5-(2-amino-6-(N-methyl-propylamino)-9H-purin-9-yl)-4-fluoro-3-hydroxy-4-methyltetrahydrofuran-2-yl)methoxy)-phenoxy-phosphoryl)-L-alaninate]
EC50 [1]: 0.073 µM
EC95 [3, 5]: 0.315 µM
CC50 at 72 h [2]: > 100 µM

COc1nc(N)nc2c1ncn2[C@@H]1O[C@H](COP(=O)(N[C@@H](C)C(=O)OCC(C)(C)C)Oc2cccc3ccccc23)[C@@H](O)[C@@]1(C)O (stereo partly shown) [INX-189]
IC50 ([4]; 48 h, Table 5, Day 2, read-out: Effect on Albumin Secretion, 50% Inhibitory Concentration (IC50)): 13.6 µM
IC50 ([4]; 48 h, Table 6, Day 2, read-out: Effect on Albumin Secretion, 50% Inhibitory Concentration (IC50)): > 30 µM
IC50 ([4]; 120 h, Table 5, Day 5, read-out: Effect on Albumin Secretion, 50% Inhibitory Concentration (IC50)): 3.1 µM
IC50 ([4]; 120 h, Table 6, Day 5, read-out: Effect on Albumin Secretion, 50% Inhibitory Concentration (IC50)): 4.2 µM
IC50 ([4]; 168 h, Table 5, Day 7, read-out: Effect on Albumin Secretion, 50% Inhibitory Concentration (IC50)): 3.2 µM
IC50 ([4]; 168 h, Table 6, Day 7, read-out: Effect on Albumin Secretion, 50% Inhibitory Concentration (IC50)): 1.8 µM
IC50 ([4]; 216 h, Day 9, read-out: Effect on Cellular ATP Concentrations, 50% Inhibitory Concentration (IC50)): 8.1 µM
IC50 ([4]; 216 h, Table 5, Day 9, read-out: Effect on Albumin Secretion, 50% Inhibitory Concentration (IC50)): 2.4 µM
IC50 ([4]; 216 h, Table 6, Day 9, read-out: Effect on Albumin Secretion, 50% Inhibitory Concentration (IC50)): 1.8 µM
IC50 ([4]; 288 h, Table 6, Day 12, read-out: Effect on Albumin Secretion, 50% Inhibitory Concentration (IC50)): 1.3 µM
IC50 ([4]; 384 h, Table 6, Day 16, read-out: Effect on Albumin Secretion, 50% Inhibitory Concentration (IC50)): < 1 µM
IC50 ([4]; 504 h, Day 21, read-out: Effect on Cellular ATP Concentrations, 50% Inhibitory Concentration (IC50)): 0.1 µM
IC50 ([4]; 504 h, Table 6, Day 21, read-out: Effect on Albumin Secretion, 50% Inhibitory Concentration (IC50)): < 1 µM
cytotoxicity to human co-cultured hepatocytes (in words) ([4]; text b588): highly cytotoxic
